How the values were obtained:
[1] = Relative thermodynamic stability of Ibandronate polymorphs; conditions: polymorph A compared with polymorph B
[2] = Solubility measurement of crystalline Ibandronate polymorphs in buffer solutions and water (titration); format: physicochemical; conditions: 25° C.
Method: The solubility of the individual crystalline Ibandronate polymorphs A and B was measured for various solutions. Approximately 10 g of the corresponding polymorph A or B were suspended in three different buffer solutions at pH 2, pH 4 (Titrisol-buffer, citrate/HCl), at pH 7 (methenamine buffer, HCl) or in water. The suspension was stirred for 24 hours at 25° C. and was kept additonally 24 hours without stirring at the same temperature. Solubility was calculated by titration according to the following method.
The residue was filtered, 2 ml of the filtrate taken, 5 ml of Titriplex III solution were added and diluted with water to 100 ml. 2 ml of this solution were added to approximately 0.1 ml of xylenol orange indicator and the pH was adjusted to 6.5 by adding small portions of methenamine buffer solution or 0.1 M hydrochloric acid. The solution is titrated immediately with Th-DCTA-xylenol orange complex until the color changes from yellow to reddish-violet. The endpoint is determined photometrically.

Row | Structure (SMILES) | thermodynamic stability relative to the other polymorph [1] | solubility ([2]; pH 2 Titrisol-buffer (citrate/HCl), stirred 24 h + 24 h without stirring) [mg/mL] | solubility ([2]; pH 4 Titrisol-buffer (citrate/HCl), stirred 24 h + 24 h without stirring) [mg/mL] | solubility ([2]; pH 7 methenamine buffer/HCl, stirred 24 h + 24 h without stirring) [mg/mL] | solubility ([2]; water, stirred 24 h + 24 h without stirring) [mg/mL] | solubility ([2]; pH 2 Titrisol-buffer (citrate/HCl), under at least partial conversion to polymorph A) [mg/mL] | solubility ([2]; pH 4 Titrisol-buffer (citrate/HCl), under at least partial conversion to polymorph A) [mg/mL] | solubility ([2]; pH 7 methenamine buffer/HCl, under at least partial conversion to polymorph A) [mg/mL] | solubility ([2]; water, under at least partial conversion to polymorph A, listed as Ibandronate polymorph B, monosodium salt monohydrate) | solubility ([2]; water, under at least partial conversion to polymorph A, monosodium salt monohydrate) [mg/mL]
1 | CCCCCN(C)CCC(O)(P(=O)([O-])O)P(=O)(O)O.O.[Na+] [Polymorph A, 3-(N-methyl-N-pentyl) amino-1-hydroxypropane-1,1-diphosphonic acid monosodium salt monohydrate] | thermodynamically more stable | 280 | 276 | 292 | 278 |  |  |  |  | 
2 | CCCCCN(C)CCC(O)(P(=O)([O-])O)P(=O)(O)O.O.[Na+] [Polymorph B, 3-(N-methyl-N-pentyl) amino-1-hydroxypropane-1,1-diphosphonic acid monosodium salt monohydrate] |  |  |  |  |  | 274 | 278 | 299 | about 279 g/l | 279
